From PubChem BioAssay (NCI)
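Cells were grown in 96-well plates and exposed to each compound for 48 hours at five concentrations; endpoints were interpolated linearly between bracketing concentrations, or set to the highest concentration if not reached. At the GI50, growth is halved. TGI is the concentration that stops growth completely.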

Tests used:
Experiment in all cases: growth of human tumour cells (NCI), 48 h
HOP-62 NSCLC = test system: HOP-62 NSCLC
HOP-92 NSCLC = test system: HOP-92 NSCLC
K-562 leukemia = test system: K-562 leukemia
HCC-2998 colon = test system: HCC-2998 colon
KM20L2 colon = test system: KM20L2 colon
TK-10 renal = test system: TK-10 renal
COLO 205 colon = test system: COLO 205 colon
M19-MEL melanoma = test system: M19-MEL melanoma
NCI/ADR-RES ovarian = test system: NCI/ADR-RES ovarian
MCF7 breast = test system: MCF7 breast
MDA-N = test system: MDA-N

| SMILES | TGI (HOP-62 NSCLC) [µM] | TGI (HOP-92 NSCLC) [µM] | TGI (K-562 leukemia) [µM] | TGI (HCC-2998 colon) [µM] | TGI (KM20L2 colon) [µM] | TGI (TK-10 renal) [µM] | TGI (COLO 205 colon) [µM] | TGI (M19-MEL melanoma) [µM] | TGI (NCI/ADR-RES ovarian) [µM] | TGI (MCF7 breast) [µM] | TGI (MDA-N) [µM] | GI50 (HOP-62 NSCLC) [µM] | GI50 (HOP-92 NSCLC) [µM] | GI50 (K-562 leukemia) [µM] | GI50 (TK-10 renal) [µM] | GI50 (M19-MEL melanoma) [µM] |
| --- | --- | --- | --- | --- | --- | --- | --- | --- | --- | --- | --- | --- | --- | --- | --- | --- |
| CC(C)c1cccc(C(C)C)c1NC(=S)Nc1ccccc1 | > 100 | > 100 | > 100 | > 100 | > 100 | > 100 | > 100 | > 100 |  |  |  |  |  |  |  |  |
| CSc1nc(NC2OC(CO)C(O)C(O)C2O)c(N)c(=O)n1C (centres undefined) | > 100 | > 100 | > 100 | > 100 | > 100 |  | > 100 | > 100 | > 100 | > 100 |  |  |  |  |  |  |
| NC(N)=NCCCS(=O)(=O)Nc1ccc(Nc2c3ccccc3nc3cc([N+](=O)[O-])ccc23)cc1 | 39.3 | 28.5 | > 89.7 | 44.1 | > 76.2 | > 84.5 | 56.2 | 24.1 | 58.8 | 87.7 | 81.1 |  |  |  |  |  |
| COc1cc(O)c2c(=O)cc(C3(OC(C)=O)C=CC(OC4OC(CO)C(O)C(O)C4O)C=C3)oc2c1 (centres undefined) | > 100 | > 100 | > 100 | > 100 |  | > 100 | > 100 |  | > 100 | > 100 | > 100 |  |  |  |  |  |
| CSC(=S)Nc1cc(C)ccn1 | > 100 | > 100 | > 100 | > 100 |  | > 100 | > 100 |  | > 100 | > 100 | > 100 |  |  |  |  |  |
| CCC1c2[nH]c3ccccc3c2C[C@H]2C(=O)NC(Cc3ccccc3)C(=O)N12 (some centres undefined) | > 100 | 72.8 | > 100 | 62.1 |  | > 100 | 39 |  | 95.3 | > 100 | 67.5 |  |  |  |  |  |
| O=C1C2=Cc3ccccc3CCN2c2ccc([N+](=O)[O-])cc21 | > 100 | > 100 | > 100 | > 100 |  | > 100 | > 100 |  | > 100 | > 100 | > 100 |  |  |  |  |  |
| COc1ccc2[nH]c3c(c2c1)CCc1ccccc1-3 | > 100 | > 100 | > 100 | > 100 |  | > 100 | > 100 |  | > 100 | > 100 | > 100 |  |  |  |  |  |
| COC(=O)C1(Cc2ccccc2C)Cc2ccc(C)cc2C1=O (centres undefined) | > 100 | 71.3 | > 100 | > 100 |  | 85.9 | 38.1 |  | 65.6 | 41 | > 100 |  |  |  |  |  |
| CCC/C(Cl)=N/OC(=O)Nc1cccc(F)c1 | 29.9 | 3.18 | 8.87 | 30.4 |  | > 19.7 | 3.98 |  | > 21.1 | 8.85 | 23.1 |  |  |  |  |  |
| O=C1C(c2c(O)n(-c3ccccc3)c3ccccc23)=Nc2ccccc21 | > 100 | 84.9 | > 100 | 75.5 |  | 53.6 | 66.3 |  | > 100 | 37 | > 100 |  |  |  |  |  |
| N/C(=N/O)c1cn(C2OC(CO)C(O)C2O)c2ncnc(NO)c12 (centres undefined) | > 100 | > 45.4 | > 100 | 7.12 |  | > 33.6 | 0.623 |  | 7.19 | 23.2 | > 100 |  |  |  |  |  |
| N=C1SCCS1 | > 100 | > 100 | > 100 | > 100 | > 100 | > 100 | > 100 | > 100 |  |  |  |  |  |  |  |  |
| Cc1[nH]c2ncn(N)c(=N)c2c1Cc1ccccc1 | > 100 | 87.8 | > 100 | > 100 |  | > 100 | > 100 |  | > 100 | > 100 | > 100 |  |  |  |  |  |
| ClCc1nc2cc(Cl)ccc2o1 | 8.28 | 3.87 | > 100 | 5.9 |  | 7.9 | 9 |  | 98.4 | 7.65 | 21.4 |  |  |  |  |  |
| CCCNc1c(Cl)cc(Cl)c2[nH]c3ccccc3c(=O)c12 | > 100 | 35 | > 100 | > 100 |  | > 100 | > 100 |  | > 100 | > 100 | > 100 |  |  |  |  |  |
| CCOC(=O)c1c(C)n(-c2ccc(C)cc2)c2c1cc(O)c1[nH]c3c(c12)CCCC3 | > 100 | 23.6 | 48.8 | 34.1 |  | 77.8 | > 100 |  | > 100 | 65.6 | 46.6 |  |  |  |  |  |

| SMILES | TGI (HOP-62 NSCLC) [µM] | TGI (HOP-92 NSCLC) [µM] | TGI (K-562 leukemia) [µM] | TGI (HCC-2998 colon) [µM] | TGI (KM20L2 colon) [µM] | TGI (TK-10 renal) [µM] | TGI (COLO 205 colon) [µM] | TGI (M19-MEL melanoma) [µM] | TGI (NCI/ADR-RES ovarian) [µM] | TGI (MCF7 breast) [µM] | TGI (MDA-N) [µM] | GI50 (HOP-62 NSCLC) [µM] | GI50 (HOP-92 NSCLC) [µM] | GI50 (K-562 leukemia) [µM] | GI50 (TK-10 renal) [µM] | GI50 (M19-MEL melanoma) [µM] |
| --- | --- | --- | --- | --- | --- | --- | --- | --- | --- | --- | --- | --- | --- | --- | --- | --- |
| COC(=O)C1CCCCCCCCCCC12SCCCS2 (centres undefined) | 41.2 | 39.9 | 56.7 | 61 |  | 41.6 | 37.4 |  | 43.1 | > 100 | > 100 |  |  |  |  |  |
| c1ncc(C23C4C5C6C4C2C6C53)[nH]1 (centres undefined) | > 100 | > 100 | > 100 | > 100 |  | > 100 | > 100 |  | > 100 | > 100 | > 100 |  |  |  |  |  |
| O=c1[nH]nc(Cc2ccc(Cl)cc2)n1Nc1ccccc1 | > 100 | > 100 | > 100 | > 100 |  | > 100 | > 100 |  | > 100 | > 100 | > 100 |  |  |  |  |  |
| C=CCSC1=N/C(=C\c2ccco2)C(=O)N1CC=C | > 100 | > 100 | > 100 | > 100 |  | > 100 | > 100 |  | > 100 | > 100 | > 100 |  |  |  |  |  |
| Nc1nc(Cl)cc(NCC2(CO)CC(O)C2)n1 (centres undefined) | > 100 | > 100 | > 100 | > 100 |  | > 100 | > 100 |  | > 100 | > 100 | > 100 |  |  |  |  |  |
| COc1cc([C@@H]2c3cc4c(cc3[C@@H](N=Cc3ccc(C(=O)O[C@H]5C[C@H]6OC[C@@]6(OC(C)=O)[C@H]6[C@H](OC(=O)c7ccccc7)[C@]7(O)C[C@H](OC(=O)[C@H](OC(=O)c8ccc(C=N[C@@H]9c%10cc%11c(cc%10[C@@H](c%10cc(OC)c(O)c(OC)c%10)[C@H]%10C(=O)OC[C@@H]%109)OCO%11)cc8)[C@@H](NC(=O)c8ccccc8)c8ccccc8)C(C)=C([C@@H](OC(C)=O)C(=O)[C@]56C)C7(C)C)cc3)C3COC(=O)C32)OCO4)cc(C)c1O (some centres undefined) | > 50 | > 50 | > 50 | > 50 |  | > 50 | > 50 |  | > 50 | 48.5 | 7.71 |  |  |  |  |  |
| CCCCC[C@H]1CC=CC(=O)O1 | 45.3 | 53.3 | > 100 | 19.7 |  | 40.4 | 15.1 |  | 27.1 | 19.6 | 23 |  |  |  |  |  |
| Nc1cccc2cc(S(=O)(=O)Nc3ccc(C(=O)O)cc3)ccc12 | > 100 | > 100 | > 100 | > 100 |  | > 100 | > 100 |  | > 100 | > 100 | > 100 |  |  |  |  |  |
| CC1(c2nc3ccccc3[nH]2)CCC(CO)C(C)(C)O1 (centres undefined) | > 100 | > 100 | > 100 | > 100 |  | > 100 | > 100 |  | > 100 | > 100 | > 100 |  |  |  |  |  |
| COc1cccc(/C=N/[N-]C(N)=O)c1[O-].[OH3+].[Zn+2] | > 100 | > 100 | > 100 | > 100 | > 100 | > 100 | > 100 |  |  |  |  |  |  |  |  |  |
| COc1cc(/C=C2\N=C(c3ccccc3)N(/N=C/c3cc4cc(C)ccc4nc3Cl)C2=O)ccc1O | > 100 | > 100 | > 100 | > 100 |  | > 100 | > 100 |  | > 100 | 63.1 | 32 |  |  |  |  |  |
| O=C(O)C1CCCCN1CCc1c[nH]c2ccccc12 (centres undefined) | > 100 | > 100 | > 100 | > 100 |  | > 100 | > 100 |  | > 100 | > 100 | > 100 |  |  |  |  |  |
| CC(=O)NC1C(OCc2ccccc2)OC(CO)C(O)C1OCC(=O)NC(C)C(=O)NC(CCC(=O)Nc1ccc2c(c1)CN1C(=O)c3ccccc3C1=N2)C(N)=O (centres undefined) | > 100 | > 100 | > 100 | > 100 |  | > 100 | > 100 |  | > 100 | > 100 | > 100 |  |  |  |  |  |
| CC[n+]1c(/C=C/c2ccc(N(CCCl)CCCl)cc2)ccc2cc(Br)ccc21 |  |  |  | 3.13 | 11.9 |  | 128 |  |  |  |  | 954 | 92.7 | 125 | 652 | 134 |
| CC1=NN(c2ccccc2Cl)C2(C1)SCC(=O)N2c1nc2ccccc2s1 (centres undefined) | > 100 | > 100 | > 100 | > 100 |  | > 100 | > 100 |  | > 100 | > 100 | > 100 |  |  |  |  |  |
| COC(=O)[C@H]1[C@H](OC(=O)[C@@H](OC)c2ccccc2)ON2CC[C@@H](OC(=O)c3ccccc3)[C@H]12 | > 100 | 66 | > 100 | > 100 |  | > 100 | > 100 |  | > 100 | 22 | > 100 |  |  |  |  |  |
